# Measured values as given in the kinase profiling compilation of Christmann-Franck et al. (2016).
# Columns and labels:
# Experiment in all cases: radiometric filter-binding kinase assay, Kinase HotSpot
# Conditions in all cases: compound 0.5 µM; ATP 10 µM
# CSNK1E (human) = CSNK1E (human) (UniProt P49674)
# TTK (human) = TTK (human) (UniProt P33981)
# EPHB3 (human) = EPHB3 (human) (UniProt P54753)
# ITK (human) = ITK (human) (UniProt Q08881)
# ROCK2 (human) = ROCK2 (human) (UniProt O75116)
# CDK9 CCNK (human) = CDK9 CCNK (human) (UniProt O75909+P50750)
# MARK4 (human) = MARK4 (human) (UniProt Q96L34)
# EGFR (human) = EGFR (human) (UniProt P00533)
# Chain of EGFR (human) (P00533 whole entry, looked up): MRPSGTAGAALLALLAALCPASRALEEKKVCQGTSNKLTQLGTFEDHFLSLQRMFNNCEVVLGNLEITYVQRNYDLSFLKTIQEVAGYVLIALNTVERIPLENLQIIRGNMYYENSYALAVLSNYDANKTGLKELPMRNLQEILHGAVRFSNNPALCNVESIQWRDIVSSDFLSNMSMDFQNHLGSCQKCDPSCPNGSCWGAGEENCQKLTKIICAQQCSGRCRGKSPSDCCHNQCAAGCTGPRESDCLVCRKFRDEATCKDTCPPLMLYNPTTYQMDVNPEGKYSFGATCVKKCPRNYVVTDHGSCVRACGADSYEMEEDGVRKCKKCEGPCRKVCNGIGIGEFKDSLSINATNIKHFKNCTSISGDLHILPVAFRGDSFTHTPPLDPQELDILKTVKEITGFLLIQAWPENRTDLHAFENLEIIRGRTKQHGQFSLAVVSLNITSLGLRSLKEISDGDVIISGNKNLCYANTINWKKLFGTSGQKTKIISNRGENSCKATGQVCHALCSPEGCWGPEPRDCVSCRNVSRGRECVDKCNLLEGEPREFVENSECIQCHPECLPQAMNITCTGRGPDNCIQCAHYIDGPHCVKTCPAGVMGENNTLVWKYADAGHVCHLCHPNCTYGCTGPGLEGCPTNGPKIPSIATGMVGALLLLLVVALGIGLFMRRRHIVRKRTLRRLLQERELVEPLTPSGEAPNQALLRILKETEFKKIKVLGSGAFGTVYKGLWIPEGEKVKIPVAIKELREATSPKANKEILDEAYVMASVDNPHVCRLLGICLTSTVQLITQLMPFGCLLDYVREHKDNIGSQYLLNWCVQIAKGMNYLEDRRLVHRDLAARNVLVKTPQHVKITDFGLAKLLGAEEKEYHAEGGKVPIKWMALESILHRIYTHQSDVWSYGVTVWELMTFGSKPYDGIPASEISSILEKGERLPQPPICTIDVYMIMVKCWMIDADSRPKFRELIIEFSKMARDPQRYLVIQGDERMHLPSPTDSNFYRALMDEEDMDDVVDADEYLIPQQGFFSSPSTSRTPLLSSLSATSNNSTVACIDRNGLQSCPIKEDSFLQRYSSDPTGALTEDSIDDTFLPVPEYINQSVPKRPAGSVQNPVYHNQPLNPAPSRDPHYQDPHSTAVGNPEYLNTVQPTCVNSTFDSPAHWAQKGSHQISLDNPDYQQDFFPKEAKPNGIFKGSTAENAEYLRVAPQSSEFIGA
# MAP3K7 TAB1 (human) = MAP3K7 TAB1 (human) (UniProt O43318+Q15750)
# ACVRL1 (human) = ACVRL1 (human) (UniProt P37023)
# CLK3 (human) = CLK3 (human) (UniProt P49761)
# MAP3K2 (human) = MAP3K2 (human) (UniProt Q9Y2U5)
# ZAP70 (human) = ZAP70 (human) (UniProt P43403)
# MAPK1 (human) = MAPK1 (human) (UniProt P28482)
# STK4 (human) = STK4 (human) (UniProt Q13043)
# CSNK2A2 (human) = CSNK2A2 (human) (UniProt P19784)
# TYRO3 (human) = TYRO3 (human) (UniProt Q06418)
# CSK (human) = CSK (human) (UniProt P41240)
# CDK2 CCNA2 (human) = CDK2 CCNA2 (human) (UniProt P24941+P20248)
# Chain of CDK2 CCNA2 (human) (P20248 whole entry, looked up, other chains not shown): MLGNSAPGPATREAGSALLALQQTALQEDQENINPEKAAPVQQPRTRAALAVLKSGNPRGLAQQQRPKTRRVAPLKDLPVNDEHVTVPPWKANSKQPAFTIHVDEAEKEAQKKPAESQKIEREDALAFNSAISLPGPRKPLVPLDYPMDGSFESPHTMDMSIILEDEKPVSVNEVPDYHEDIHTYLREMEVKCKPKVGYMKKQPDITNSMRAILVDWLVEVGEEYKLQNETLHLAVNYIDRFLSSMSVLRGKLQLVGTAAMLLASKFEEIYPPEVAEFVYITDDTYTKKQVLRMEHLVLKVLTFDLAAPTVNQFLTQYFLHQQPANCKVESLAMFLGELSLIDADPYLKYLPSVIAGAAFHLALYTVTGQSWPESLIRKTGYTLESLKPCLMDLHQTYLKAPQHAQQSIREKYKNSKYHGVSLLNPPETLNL
# CSF1R (human) = CSF1R (human) (UniProt P07333)
# ERBB4 (human) = ERBB4 (human) (UniProt Q15303)
# Chain of ERBB4 (human) (Q15303 whole entry, looked up): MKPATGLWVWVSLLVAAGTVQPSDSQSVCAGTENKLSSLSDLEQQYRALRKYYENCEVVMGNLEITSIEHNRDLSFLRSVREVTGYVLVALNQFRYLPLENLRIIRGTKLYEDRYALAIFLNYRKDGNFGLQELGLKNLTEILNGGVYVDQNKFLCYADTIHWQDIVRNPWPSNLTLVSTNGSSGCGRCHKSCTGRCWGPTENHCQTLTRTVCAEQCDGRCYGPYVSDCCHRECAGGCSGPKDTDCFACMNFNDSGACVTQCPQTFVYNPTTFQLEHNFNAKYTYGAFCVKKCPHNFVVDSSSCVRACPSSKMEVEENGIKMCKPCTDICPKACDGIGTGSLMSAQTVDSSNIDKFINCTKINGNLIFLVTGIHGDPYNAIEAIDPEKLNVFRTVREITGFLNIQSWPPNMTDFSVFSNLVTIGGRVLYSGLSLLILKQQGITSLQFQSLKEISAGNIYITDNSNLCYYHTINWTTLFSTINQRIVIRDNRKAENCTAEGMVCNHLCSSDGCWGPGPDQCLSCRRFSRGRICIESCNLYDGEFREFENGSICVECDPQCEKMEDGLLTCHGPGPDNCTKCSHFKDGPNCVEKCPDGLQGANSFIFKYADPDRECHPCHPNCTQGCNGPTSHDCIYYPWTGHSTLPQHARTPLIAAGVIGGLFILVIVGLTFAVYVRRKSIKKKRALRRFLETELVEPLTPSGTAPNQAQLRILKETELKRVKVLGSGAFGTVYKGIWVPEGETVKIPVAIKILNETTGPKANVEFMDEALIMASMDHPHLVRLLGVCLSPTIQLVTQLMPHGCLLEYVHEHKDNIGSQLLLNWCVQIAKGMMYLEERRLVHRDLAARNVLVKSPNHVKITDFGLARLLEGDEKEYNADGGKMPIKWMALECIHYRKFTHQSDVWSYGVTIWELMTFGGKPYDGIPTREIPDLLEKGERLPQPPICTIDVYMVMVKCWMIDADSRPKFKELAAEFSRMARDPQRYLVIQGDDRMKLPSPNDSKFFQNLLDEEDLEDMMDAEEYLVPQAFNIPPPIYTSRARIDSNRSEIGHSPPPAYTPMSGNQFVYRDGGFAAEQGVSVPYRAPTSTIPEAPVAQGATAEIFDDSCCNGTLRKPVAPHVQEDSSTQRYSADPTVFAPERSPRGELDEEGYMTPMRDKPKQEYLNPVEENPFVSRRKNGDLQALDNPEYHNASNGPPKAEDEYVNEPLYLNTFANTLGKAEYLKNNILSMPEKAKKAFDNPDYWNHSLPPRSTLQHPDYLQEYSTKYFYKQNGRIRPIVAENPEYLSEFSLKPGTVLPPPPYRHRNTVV
# PIM3 (human) = PIM3 (human) (UniProt Q86V86)
# PTK2B (human) = PTK2B (human) (UniProt Q14289)
# TGFBR1 (human) = TGFBR1 (human) (UniProt P36897)
# CSNK1D (human) = CSNK1D (human) (UniProt P48730)
# MST1R (human) = MST1R (human) (UniProt Q04912)
# CDK4 CCND3 (human) = CDK4 CCND3 (human) (UniProt P30281+P11802)
# GSG2 (human) = GSG2 (human) (UniProt Q8TF76)
# KIT (human) = KIT (human) (UniProt P10721)
# Chain of KIT (human) (P10721 whole entry, looked up): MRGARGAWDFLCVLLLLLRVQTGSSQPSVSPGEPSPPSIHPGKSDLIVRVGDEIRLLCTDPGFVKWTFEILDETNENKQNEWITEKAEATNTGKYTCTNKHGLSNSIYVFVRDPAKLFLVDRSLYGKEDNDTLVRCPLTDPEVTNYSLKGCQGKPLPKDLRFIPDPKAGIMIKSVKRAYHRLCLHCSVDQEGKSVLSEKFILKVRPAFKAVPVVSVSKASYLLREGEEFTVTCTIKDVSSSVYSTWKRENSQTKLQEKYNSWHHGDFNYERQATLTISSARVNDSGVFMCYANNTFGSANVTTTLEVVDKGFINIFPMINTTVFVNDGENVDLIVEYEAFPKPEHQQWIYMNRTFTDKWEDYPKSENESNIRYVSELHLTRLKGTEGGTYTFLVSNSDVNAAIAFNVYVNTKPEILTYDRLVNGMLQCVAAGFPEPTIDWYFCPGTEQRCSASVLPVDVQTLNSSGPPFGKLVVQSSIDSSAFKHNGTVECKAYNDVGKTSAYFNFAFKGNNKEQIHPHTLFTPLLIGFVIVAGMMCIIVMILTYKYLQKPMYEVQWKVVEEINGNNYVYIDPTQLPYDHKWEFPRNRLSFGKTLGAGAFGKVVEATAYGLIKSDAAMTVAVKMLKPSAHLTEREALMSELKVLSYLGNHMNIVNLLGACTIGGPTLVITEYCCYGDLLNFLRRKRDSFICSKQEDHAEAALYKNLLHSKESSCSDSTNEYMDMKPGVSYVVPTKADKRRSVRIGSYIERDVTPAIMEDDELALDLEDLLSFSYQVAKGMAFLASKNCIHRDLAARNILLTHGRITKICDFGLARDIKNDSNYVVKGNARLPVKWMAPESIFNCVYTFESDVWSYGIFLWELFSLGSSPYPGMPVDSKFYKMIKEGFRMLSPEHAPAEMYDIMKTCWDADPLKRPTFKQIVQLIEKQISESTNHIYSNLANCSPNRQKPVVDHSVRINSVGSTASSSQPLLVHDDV
# DCLK2 (human) = DCLK2 (human) (UniProt Q8N568)
# CAMKK1 (human) = CAMKK1 (human) (UniProt Q8N5S9)
# PRKD3 (human) = PRKD3 (human) (UniProt O94806)
# BRSK1 (human) = BRSK1 (human) (UniProt Q8TDC3)
# BRSK2 (human) = BRSK2 (human) (UniProt Q8IWQ3)
# ROS1 (human) = ROS1 (human) (UniProt P08922)
# RAF1 (human) = RAF1 (human) (UniProt P04049)
# STK39 (human) = STK39 (human) (UniProt Q9UEW8)
# CHEK2 (human) = CHEK2 (human) (UniProt O96017)
# MARK3 (human) = MARK3 (human) (UniProt P27448)
# ABL1 (human) = ABL1 (human) (UniProt P00519)
# Chain of ABL1 (human) (P00519 whole entry, looked up): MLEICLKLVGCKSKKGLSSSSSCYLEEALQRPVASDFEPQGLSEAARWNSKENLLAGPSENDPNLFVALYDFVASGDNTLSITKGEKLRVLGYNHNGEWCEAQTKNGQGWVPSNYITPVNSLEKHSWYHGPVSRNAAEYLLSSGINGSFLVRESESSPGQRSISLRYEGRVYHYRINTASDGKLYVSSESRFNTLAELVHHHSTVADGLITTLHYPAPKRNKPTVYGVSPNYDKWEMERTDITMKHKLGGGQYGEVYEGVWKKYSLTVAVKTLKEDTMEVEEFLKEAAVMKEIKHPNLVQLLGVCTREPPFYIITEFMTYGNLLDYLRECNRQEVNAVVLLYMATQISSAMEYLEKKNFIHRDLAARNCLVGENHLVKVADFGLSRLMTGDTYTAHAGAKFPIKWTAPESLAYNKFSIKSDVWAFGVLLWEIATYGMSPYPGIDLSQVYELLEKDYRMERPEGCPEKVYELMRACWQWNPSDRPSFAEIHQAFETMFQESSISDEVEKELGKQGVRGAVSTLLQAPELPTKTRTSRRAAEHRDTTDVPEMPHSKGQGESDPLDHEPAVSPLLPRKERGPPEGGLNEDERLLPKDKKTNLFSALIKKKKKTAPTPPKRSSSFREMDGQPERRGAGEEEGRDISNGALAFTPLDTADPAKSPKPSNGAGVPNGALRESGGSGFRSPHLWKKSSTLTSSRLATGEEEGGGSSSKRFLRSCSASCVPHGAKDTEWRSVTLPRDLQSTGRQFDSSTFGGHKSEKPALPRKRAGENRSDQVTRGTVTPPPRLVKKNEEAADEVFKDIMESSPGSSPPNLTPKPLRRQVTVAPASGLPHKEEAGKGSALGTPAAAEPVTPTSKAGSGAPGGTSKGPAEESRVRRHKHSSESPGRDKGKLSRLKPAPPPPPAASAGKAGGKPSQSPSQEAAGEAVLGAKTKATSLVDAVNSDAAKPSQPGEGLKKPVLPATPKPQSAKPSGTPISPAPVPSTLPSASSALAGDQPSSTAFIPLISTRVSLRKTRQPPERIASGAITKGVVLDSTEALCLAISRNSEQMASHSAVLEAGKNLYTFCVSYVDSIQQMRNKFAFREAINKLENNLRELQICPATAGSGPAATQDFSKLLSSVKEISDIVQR
# MAP4K2 (human) = MAP4K2 (human) (UniProt Q12851)
# TSSK1B (human) = TSSK1B (human) (UniProt Q9BXA7)
smiles,measurement,setting,value
Oc1ccc(Nc2nc(-c3ccc(Cl)cc3)cs2)cc1,residual activity,CSNK1E (human),103%
same,residual activity,TTK (human),87.6%
same,residual activity,EPHB3 (human),103%
same,residual activity,ITK (human),95.4%
same,residual activity,ROCK2 (human),99.4%
same,residual activity,CDK9 CCNK (human),102%
same,residual activity,MARK4 (human),103%
same,residual activity,EGFR (human),95.3%
same,residual activity,MAP3K7 TAB1 (human),95.3%
same,residual activity,ACVRL1 (human),103%
same,residual activity,CLK3 (human),92.6%
same,residual activity,MAP3K2 (human),92.1%
same,residual activity,ZAP70 (human),94.7%
same,residual activity,MAPK1 (human),106%
same,residual activity,STK4 (human),106%
same,residual activity,CSNK2A2 (human),96.9%
same,residual activity,TYRO3 (human),102%
same,residual activity,CSK (human),101%
same,residual activity,CDK2 CCNA2 (human),98.6%
same,residual activity,CSF1R (human),104%
same,residual activity,ERBB4 (human),83.3%
same,residual activity,PIM3 (human),114%
same,residual activity,PTK2B (human),100%
same,residual activity,TGFBR1 (human),99.9%
same,residual activity,CSNK1D (human),105%
same,residual activity,MST1R (human),92.5%
same,residual activity,CDK4 CCND3 (human),108%
same,residual activity,GSG2 (human),100%
same,residual activity,KIT (human),92%
same,residual activity,DCLK2 (human),98.5%
same,residual activity,CAMKK1 (human),124%
same,residual activity,PRKD3 (human),97.7%
same,residual activity,BRSK1 (human),102%
same,residual activity,BRSK2 (human),101%
same,residual activity,ROS1 (human),96.9%
same,residual activity,RAF1 (human),95.7%
same,residual activity,STK39 (human),94.2%
same,residual activity,CHEK2 (human),97.9%
same,residual activity,MARK3 (human),95.3%
same,residual activity,ABL1 (human),99.7%
same,residual activity,MAP4K2 (human),103%
same,residual activity,TSSK1B (human),119%
COc1cc2ncc(-c3ccccc3)nc2cc1OC,residual activity,CSNK1E (human),79.3%
same,residual activity,TTK (human),125%
same,residual activity,EPHB3 (human),88.6%
same,residual activity,ITK (human),97.8%
same,residual activity,ROCK2 (human),96.1%
same,residual activity,CDK9 CCNK (human),102%
same,residual activity,MARK4 (human),85.3%
same,residual activity,EGFR (human),82.9%
same,residual activity,MAP3K7 TAB1 (human),92.8%
same,residual activity,ACVRL1 (human),95.8%
same,residual activity,CLK3 (human),90.1%
same,residual activity,MAP3K2 (human),92.5%
same,residual activity,ZAP70 (human),98.6%
same,residual activity,MAPK1 (human),95.6%
same,residual activity,STK4 (human),96.3%
same,residual activity,CSNK2A2 (human),98.3%
same,residual activity,TYRO3 (human),100%
same,residual activity,CSK (human),107%
same,residual activity,CDK2 CCNA2 (human),92.9%
same,residual activity,CSF1R (human),88.2%
same,residual activity,ERBB4 (human),65.9%
same,residual activity,PIM3 (human),87.4%
same,residual activity,PTK2B (human),85.9%
same,residual activity,TGFBR1 (human),101%
same,residual activity,CSNK1D (human),101%
same,residual activity,MST1R (human),84.2%
same,residual activity,CDK4 CCND3 (human),97.5%
same,residual activity,GSG2 (human),92.1%
same,residual activity,KIT (human),67.3%
same,residual activity,DCLK2 (human),96%
same,residual activity,CAMKK1 (human),98.9%
same,residual activity,PRKD3 (human),91.1%
same,residual activity,BRSK1 (human),102%
same,residual activity,BRSK2 (human),103%
same,residual activity,ROS1 (human),100%
same,residual activity,RAF1 (human),106%
same,residual activity,STK39 (human),88%
same,residual activity,CHEK2 (human),94.2%
same,residual activity,MARK3 (human),98.2%
same,residual activity,ABL1 (human),94.1%
same,residual activity,MAP4K2 (human),99.2%
same,residual activity,TSSK1B (human),94.5%
Cn1sc(=O)n(Cc2ccccc2)c1=O,residual activity,CSNK1E (human),100%
same,residual activity,TTK (human),101%
same,residual activity,EPHB3 (human),91.3%
same,residual activity,ITK (human),93.2%
same,residual activity,ROCK2 (human),88.8%
same,residual activity,CDK9 CCNK (human),97.2%
same,residual activity,MARK4 (human),85.1%
same,residual activity,EGFR (human),105%
same,residual activity,MAP3K7 TAB1 (human),105%
same,residual activity,ACVRL1 (human),117%
same,residual activity,CLK3 (human),83%
same,residual activity,MAP3K2 (human),94.7%
same,residual activity,ZAP70 (human),102%
same,residual activity,MAPK1 (human),93.1%
same,residual activity,STK4 (human),107%
same,residual activity,CSNK2A2 (human),98.5%
same,residual activity,TYRO3 (human),99.9%
same,residual activity,CSK (human),101%
same,residual activity,CDK2 CCNA2 (human),100%
same,residual activity,CSF1R (human),98.6%
same,residual activity,ERBB4 (human),104%
same,residual activity,PIM3 (human),120%
same,residual activity,PTK2B (human),91%
same,residual activity,TGFBR1 (human),97.2%
same,residual activity,CSNK1D (human),100%
same,residual activity,MST1R (human),101%
same,residual activity,CDK4 CCND3 (human),114%
same,residual activity,GSG2 (human),99%
same,residual activity,KIT (human),101%
same,residual activity,DCLK2 (human),98.5%
same,residual activity,CAMKK1 (human),114%
same,residual activity,PRKD3 (human),95.9%
same,residual activity,BRSK1 (human),102%
same,residual activity,BRSK2 (human),99.4%
same,residual activity,ROS1 (human),103%
same,residual activity,RAF1 (human),97.2%
same,residual activity,STK39 (human),97.9%
same,residual activity,CHEK2 (human),108%
same,residual activity,MARK3 (human),97.1%
same,residual activity,ABL1 (human),104%
same,residual activity,MAP4K2 (human),119%
same,residual activity,TSSK1B (human),94.4%
Cc1nc2cc3nc(-c4cccs4)cnc3cc2n1C,residual activity,CSNK1E (human),94.5%
same,residual activity,TTK (human),92.6%
same,residual activity,EPHB3 (human),101%
same,residual activity,ITK (human),96.7%
same,residual activity,ROCK2 (human),107%
same,residual activity,CDK9 CCNK (human),110%
same,residual activity,MARK4 (human),105%
same,residual activity,EGFR (human),104%
same,residual activity,MAP3K7 TAB1 (human),92.5%
same,residual activity,ACVRL1 (human),109%
same,residual activity,CLK3 (human),114%
same,residual activity,MAP3K2 (human),90.2%
same,residual activity,ZAP70 (human),93.3%
same,residual activity,MAPK1 (human),110%
same,residual activity,STK4 (human),97.4%
same,residual activity,CSNK2A2 (human),99%
same,residual activity,TYRO3 (human),103%
same,residual activity,CSK (human),101%
same,residual activity,CDK2 CCNA2 (human),104%
same,residual activity,CSF1R (human),63.5%
same,residual activity,ERBB4 (human),95%
same,residual activity,PIM3 (human),91.2%
same,residual activity,PTK2B (human),96.4%
same,residual activity,TGFBR1 (human),98.7%
same,residual activity,CSNK1D (human),95.9%
same,residual activity,MST1R (human),107%
same,residual activity,CDK4 CCND3 (human),101%
same,residual activity,GSG2 (human),108%
same,residual activity,KIT (human),40.4%
same,residual activity,DCLK2 (human),104%
same,residual activity,CAMKK1 (human),127%
same,residual activity,PRKD3 (human),97.1%
same,residual activity,BRSK1 (human),98.7%
same,residual activity,BRSK2 (human),98%
same,residual activity,ROS1 (human),97.9%
same,residual activity,RAF1 (human),104%
same,residual activity,STK39 (human),79.8%
same,residual activity,CHEK2 (human),94.6%
same,residual activity,MARK3 (human),105%
same,residual activity,ABL1 (human),80.4%
same,residual activity,MAP4K2 (human),110%
same,residual activity,TSSK1B (human),91.3%
